Values quoted from earlier work as cited in patent US20200300859A1, “MODULATING BIOMARKERS TO INCREASE TUMOR IMMUNITY AND IMPROVE THE EFFICACY OF CANCER IMMUNOTHERAPY” (Dana-Farber Cancer Institute, Inc., priority 2017, published 2020).

System: osmotic nephrosis
Details: in vivo

Question: With `CN1C(=O)C(Cc2c[nH]c3ccccc23)NC1=S` (stereo not shown) [Necrostatin-1, 5-(1H-Indol-3-ylmethyl)-3-methyl-2-thioxo-4-imidazolidinone] as the molecule, how does the osmotic nephrosis read?
Answer: The osmotic nephrosis was “prevents”.
